Experimental data from patent publication US20250057845A1, “COMBINATION OF A TASK1/3 CHANNEL BLOCKER WITH A P2X3 RECEPTOR ANTAGONIST FOR THE TREATMENT OF SLEEP APNEA” (BAYER AKTIENGESELLSCHAFT, priority 2020, published 2025).

Assays:
[1] = test system: upper airway collapsibility in anaesthetized, spontaneously breathing pigs; assay: pig model of obstructive sleep apnea (OSA): upper airway collapsibility under negative pressure; assay type: in vivo, German Landrace pigs
Text: The therapeutic potential of the combination of a TASK1/3 channel blocker with a P2X3 receptor antagonist according to the present invention in sleep apnea can be assessed preclinically in a pig model of obstructive sleep apnea (OSA).
Using negative pressure, it is possible to induce collapse and thus obstruction of the upper respiratory tract in anaesthetized, spontaneously breathing pigs (Wirth K. J. et al., Sleep 36(5) (2013) pp. 699-708).
German Landrace pigs are used for the model. The pigs are anaesthetized and tracheotomized. Two tracheal cannulas are inserted into the trachea, one into the rostral part and the other into the caudal part of the trachea. Using a connection piece, the rostral cannula is connected to a tube to the negative pressure device and to the distal tracheal cannula. The distal tracheal cannula is additionally connected to a tube with an open end to atmosphere via a connection piece that served for free tracheal breathing, circumventing the upper airway. By appropriate opening and clamping of those tubes breathing can be switched from nasal breathing to breathing through the caudal tracheal cannula, circumventing the upper airway, and the (isolated) upper airway can be connected to the negative pressure device, causing airflow in the inspiratory direction.
At certain points in time, the collapsibility of the upper respiratory tract is tested by having the pig breathe via the caudal cannula and applying negative pressures of −50, −100 and −150 cm water head (cm H2O) to the upper respiratory tract. This causes the upper respiratory tract to collapse, which manifests itself in an interruption of the airflow and a pressure drop in the tube system. This test is conducted prior to the administration of the test substance and at certain intervals after the administration of the test substance. An appropriately effective test substance can prevent this collapse of the respiratory tract in the inspiratory phase.

[2] = free plasma concentrations of Gefapixant in the OSA pig model (FIG. 4); assay type: in vivo, German Landrace pigs; conditions: pigs, minimal effective dose of Gefapixant (iv bolus 0.3 mg/kg then infusion 0.1 mg/kg/h)
[3] = Gefapixant iv bolus 0.3 mg/kg then iv infusion 0.1 mg/kg/h for four hours, given at 0 min, time 0 min
[4] = Gefapixant iv bolus 0.3 mg/kg then iv infusion 0.1 mg/kg/h for four hours, given at 0 min, time 10 min
[5] = Gefapixant iv bolus 0.3 mg/kg then iv infusion 0.1 mg/kg/h for four hours, given at 0 min, time 30 min
[6] = Gefapixant iv bolus 0.3 mg/kg then iv infusion 0.1 mg/kg/h for four hours, given at 0 min, time 60 min
[7] = Gefapixant iv bolus 0.3 mg/kg then iv infusion 0.1 mg/kg/h for four hours, given at 0 min, time 120 min
[8] = Gefapixant iv bolus 0.3 mg/kg then iv infusion 0.1 mg/kg/h for four hours, given at 0 min, time 180 min
[9] = Gefapixant iv bolus 0.3 mg/kg then iv infusion 0.1 mg/kg/h for four hours, given at 0 min, time 240 min
[10] = Gefapixant iv bolus 0.3 mg/kg then iv infusion 0.1 mg/kg/h for four hours, given at 0 min, time 300 min
[11] = 0.3 μg intranasal given at 0 min, time 0 min
[12] = 0.3 μg intranasal given at 0 min, time 10 min
[13] = 0.3 μg intranasal given at 0 min, time 30 min
[14] = 0.3 μg intranasal given at 0 min, time 60 min
[15] = 0.3 μg intranasal given at 0 min, time 90 min

With COc1cc(C(C)C)c(Oc2cnc(N)nc2N)cc1S(N)(=O)=O [Gefapixant] the “Percent pigs without collaps −50 cm H2O, %” value [1, 3] was 0%, the “Percent pigs without collaps −50 cm H2O, %” value [1, 4] was 0% and the “Percent pigs without collaps −50 cm H2O, %” value [1, 5] was 100%. The “Percent pigs without collaps −50 cm H2O, %” value [1, 6] was 100%, the “Percent pigs without collaps −50 cm H2O, %” value [1, 7] was 0% and the “Percent pigs without collaps −50 cm H2O, %” value [1, 8] was 0%. The “Percent pigs without collaps −50 cm H2O, %” value [1, 9] was 0%, the “Percent pigs without collaps −50 cm H2O, %” value [1, 10] was 0% and the “Percent pigs without collaps −100 cm H2O, %” value [1, 3] was 0%. For the same compound, the “Percent pigs without collaps −100 cm H2O, %” value [1, 4] was 0%, the “Percent pigs without collaps −100 cm H2O, %” value [1, 5] was 100% and the “Percent pigs without collaps −100 cm H2O, %” value [1, 6] was 0%. The “Percent pigs without collaps −100 cm H2O, %” value [1, 7] was 0%, the “Percent pigs without collaps −100 cm H2O, %” value [1, 8] was 0% and the “Percent pigs without collaps −100 cm H2O, %” value [1, 9] was 0%. For the same compound, the “Percent pigs without collaps −100 cm H2O, %” value [1, 10] was 0%, the “Percent pigs without collaps −150 cm H2O, %” value [1, 3] was 0% and the “Percent pigs without collaps −150 cm H2O, %” value [1, 4] was 0%. For the same compound, the “Percent pigs without collaps −150 cm H2O, %” value [1, 5] was 100%, the “Percent pigs without collaps −150 cm H2O, %” value [1, 6] was 0% and the “Percent pigs without collaps −150 cm H2O, %” value [1, 7] was 0%. For the same compound, the “Percent pigs without collaps −150 cm H2O, %” value [1, 8] was 0%, the “Percent pigs without collaps −150 cm H2O, %” value [1, 9] was 0% and the “Percent pigs without collaps −150 cm H2O, %” value [1, 10] was 0%. For the same compound, the “effectiveness of the dose on upper airway collapsibility” value ([1]; iv bolus 0.3 mg/kg then iv infusion 0.1 mg/kg/h for four hours) was “minimal effective dose”, the “only time point after intravenous application at which upper airway collapsibility was inhibited at all three negative pressures in all pigs” value ([1]; iv bolus 0.3 mg/kg then iv infusion 0.1 mg/kg/h for four hours, −50, −100 and −150 cm H2O) was 30 min and the free plasma concentrations [2] was “about 100 nM”.
For COc1ccc(Cl)c(C(=O)N2C3CCC2CN(Cc2c(-c4ccc(C(C)C)cc4)nc4ncccn24)C3)n1 [(3-chloro-6-methoxypyridin-2-yl)(3-{[2-(4-isopropylphenyl)imidazo[1,2-a]pyrimidin-3-yl]methyl}-3,8-diazabicyclo[3.2.1]oct-8-yl)methanone], the “effectiveness of the dose on upper airway collapsibility” value ([1]; 0.3 μg intranasal) was “non effective dose”, the “Percent pigs without collaps −50 cm H2O, %” value [1, 11] was 0% and the “Percent pigs without collaps −50 cm H2O, %” value [1, 12] was 33%. The “Percent pigs without collaps −50 cm H2O, %” value [1, 13] was 0%, the “Percent pigs without collaps −50 cm H2O, %” value [1, 14] was 0% and the “Percent pigs without collaps −50 cm H2O, %” value [1, 15] was 0%. The “Percent pigs without collaps −100 cm H2O, %” value [1, 11] was 0%, the “Percent pigs without collaps −100 cm H2O, %” value [1, 12] was 33% and the “Percent pigs without collaps −100 cm H2O, %” value [1, 13] was 0%. For the same compound, the “Percent pigs without collaps −100 cm H2O, %” value [1, 14] was 0%, the “Percent pigs without collaps −100 cm H2O, %” value [1, 15] was 0% and the “Percent pigs without collaps −150 cm H2O, %” value [1, 11] was 0%. The “Percent pigs without collaps −150 cm H2O, %” value [1, 12] was 0%, the “Percent pigs without collaps −150 cm H2O, %” value [1, 13] was 0% and the “Percent pigs without collaps −150 cm H2O, %” value [1, 14] was 0%. For the same compound, the “Percent pigs without collaps −150 cm H2O, %” value [1, 15] was 0%.
